Test results taken from PubChem BioAssay AID602205 (Sanford-Burnham Center for Chemical Genomics, 2012).
Activity calls are given as the source filed them. How the calls were made is not given here.

Biological target: Ubiquitin-conjugating enzyme E2 N (Homo sapiens) (UniProt P61088)
Assay: UBC13 polyubiquitination inhibitors, SAR follow-up, biochemical, TR-FRET, set 3 (AID 602205)
Conditions: TR-FRET polyubiquitination assay

Ubiquitin-conjugating enzyme E2 N (Homo sapiens), sequence (P61088 whole entry, looked up): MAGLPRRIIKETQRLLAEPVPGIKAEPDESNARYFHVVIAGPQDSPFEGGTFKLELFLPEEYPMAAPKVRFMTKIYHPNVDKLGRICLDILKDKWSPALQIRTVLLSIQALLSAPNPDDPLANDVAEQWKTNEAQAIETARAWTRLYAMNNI

| SMILES | IC50 |
| --- | --- |
| COc1cc(Cl)c(C)cc1NC(=O)C1CCN(c2ncnc3c2nc2n3CCCCC2)CC1 | > 100 µM (inactive) |
| Cc1cc(Cl)ccc1NC(=O)C1CCN(c2ncnc3c2nc2n3CCCCC2)CC1 | inactive |
| Cc1ccc(Cl)cc1N1CCN(c2ncnc3c2nc2n3CCCC2)CC1 | > 100 µM (inactive) |
| O=C(CCCCCN1C(=O)c2ccccc2C1=O)NCCc1ccccc1 | > 100 µM (inactive) |
| c1ccc(CN2CCN(c3ncnc4c3nc3n4CCCC3)CC2)cc1 | > 100 µM (inactive) |
| CCOc1ccc(CCNC(=O)CCCCCN2C(=O)c3ccccc3C2=O)cc1OCC | > 100 µM (inactive) |
| COc1ccc(Cl)cc1NC(=O)C1CCN(c2ncnc3c2nc2n3CCCCC2)CC1 | inactive |
| Fc1ccccc1N1CCN(c2ncnc3c2nc2n3CCCC2)CC1 | > 100 µM (inactive) |
| COc1cc(OC)c(NC(=O)C2CCN(c3ncnc4c3nc3n4CCCCC3)CC2)cc1Cl | > 100 µM (inactive) |
| CC1CN(S(=O)(=O)c2ccc(NC(=O)CCCCCN3C(=O)c4ccccc4C3=O)cc2)CC(C)O1 (centres undefined) | > 100 µM (inactive) |
| COc1ccc(NC(=O)C2CCN(c3ncnc4c3nc3n4CCCCC3)CC2)cc1Cl | > 100 µM (inactive) |

Continued, values first:

| IC50 | SMILES |
| --- | --- |
| > 100 µM (inactive) | c1nc(N2CCC(N3CCCCC3)CC2)c2nc3n(c2n1)CCCC3 |
| inactive | Cc1c(Cl)cccc1NC(=O)C1CCN(c2ncnc3c2nc2n3CCCCC2)CC1 |
| inactive | O=C(Nc1cc(F)ccc1F)C1CCN(c2ncnc3c2nc2n3CCCCC2)CC1 |
| inactive | Cc1ccc(NC(=O)C2CCN(c3ncnc4c3nc3n4CCCCC3)CC2)cc1C |
| 9.63 µM | O=C(Nc1cccc(Cl)c1)C1CCN(c2ncnc3c2nc2n3CCCCC2)CC1 |
| > 100 µM (inactive) | Cc1ccc(NC(=O)C2CCN(c3ncnc4c3nc3n4CCCCC3)CC2)c(Cl)c1 |
| inactive | Cc1ccc(NC(=O)C2CCN(c3ncnc4c3nc3n4CCCCC3)CC2)cc1F |
| > 100 µM (inactive) | O=C(Nc1ccc(CN2CCCCC2)cc1)C1CCN(c2ncnc3c2nc2n3CCCCC2)CC1 |
